{"source": "ChEMBL document CHEMBL1201862", "about": "“PubChem BioAssay data set” (2004)", "key": {"[1]": {"target": "T1, Orexin/Hypocretin receptor type 1 (Homo sapiens, UniProt O43613)", "T1 sequence (O43613 whole entry)": "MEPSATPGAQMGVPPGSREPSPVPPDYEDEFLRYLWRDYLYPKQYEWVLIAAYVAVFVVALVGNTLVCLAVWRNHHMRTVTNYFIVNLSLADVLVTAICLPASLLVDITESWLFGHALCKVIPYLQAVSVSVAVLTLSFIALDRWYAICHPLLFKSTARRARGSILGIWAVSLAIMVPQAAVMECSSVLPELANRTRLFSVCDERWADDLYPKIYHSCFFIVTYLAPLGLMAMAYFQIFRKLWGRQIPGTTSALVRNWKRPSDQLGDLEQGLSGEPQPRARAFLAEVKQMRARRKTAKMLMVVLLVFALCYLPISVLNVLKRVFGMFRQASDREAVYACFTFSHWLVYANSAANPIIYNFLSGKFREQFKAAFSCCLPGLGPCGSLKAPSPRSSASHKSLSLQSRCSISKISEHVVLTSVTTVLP", "assay": "(§1) Fluorescence-based cell-based high throughput dose response assay for antagonists of the orexin 1 receptor (OX1R; HCRTR1). [Related pubchem assays (depositor defined):AID434989, AID435008, AID463079, AID485270, AID492963, AID492964, AID492965, AID493232, AID504717, AID504718]", "format": "functional"}, "[2]": {"target": "T1, Orexin/Hypocretin receptor type 1", "assay": "as §1, with “Homogeneous Time Resolved Fluorescence (HTRF)-based” for “Fluorescence-based”", "format": "functional"}, "[3]": {"assay": "(§2) Counterscreen for antagonists of the orexin 1 receptor (OX1R; HCRTR1): Fluorescence-based cell-based high throughput dose response assay to identify antagonists of the parental CHO cell line. [Related pubchem assays (depositor defined):AID434989, AID435008, AID463079, AID485270, AID492963, AID492964, AID492965, AID493232, AID504699, AID504701]", "format": "functional"}, "CHO-K1": {"tested_on": "CHO-K1", "assay": "as §2, with “Homogeneous time resolved fluorescence (HTRF)-based” for “Fluorescence-based”, “cell-based” for “cell-based high throughput”, “CHO-K1” for “CHO”", "format": "functional", "settings": "Cricetulus griseus"}, "[4]": {"target": "T2, Tyrosine-protein phosphatase non-receptor type 22 (Homo sapiens, UniProt Q9Y2R2)", "T2 sequence (Q9Y2R2 whole entry)": "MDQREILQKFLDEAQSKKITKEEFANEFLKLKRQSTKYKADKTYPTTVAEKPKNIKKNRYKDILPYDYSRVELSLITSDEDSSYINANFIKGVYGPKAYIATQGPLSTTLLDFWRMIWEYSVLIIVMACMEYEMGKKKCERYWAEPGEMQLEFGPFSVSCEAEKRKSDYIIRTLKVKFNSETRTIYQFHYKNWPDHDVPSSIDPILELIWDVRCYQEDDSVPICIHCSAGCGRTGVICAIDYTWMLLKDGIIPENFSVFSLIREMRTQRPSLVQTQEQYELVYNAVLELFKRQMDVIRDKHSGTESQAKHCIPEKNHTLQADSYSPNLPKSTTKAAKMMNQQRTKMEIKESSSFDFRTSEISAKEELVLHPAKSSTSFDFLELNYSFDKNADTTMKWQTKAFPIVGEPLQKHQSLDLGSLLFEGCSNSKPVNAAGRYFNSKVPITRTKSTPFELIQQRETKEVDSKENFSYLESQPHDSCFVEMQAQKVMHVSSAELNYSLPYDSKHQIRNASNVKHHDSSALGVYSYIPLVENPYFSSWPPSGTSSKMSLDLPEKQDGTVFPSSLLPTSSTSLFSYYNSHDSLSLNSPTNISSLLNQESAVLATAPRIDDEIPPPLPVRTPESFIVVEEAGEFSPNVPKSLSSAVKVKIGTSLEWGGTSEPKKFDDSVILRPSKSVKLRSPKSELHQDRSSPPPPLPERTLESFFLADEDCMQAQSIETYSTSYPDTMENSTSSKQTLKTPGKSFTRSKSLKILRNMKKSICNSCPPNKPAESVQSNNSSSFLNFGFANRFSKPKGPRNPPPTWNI", "format": "functional"}, "[5]": {"target": "T3, Tyrosine-protein phosphatase non-receptor type 7 (Homo sapiens, UniProt P35236)", "T3 sequence (P35236 whole entry)": "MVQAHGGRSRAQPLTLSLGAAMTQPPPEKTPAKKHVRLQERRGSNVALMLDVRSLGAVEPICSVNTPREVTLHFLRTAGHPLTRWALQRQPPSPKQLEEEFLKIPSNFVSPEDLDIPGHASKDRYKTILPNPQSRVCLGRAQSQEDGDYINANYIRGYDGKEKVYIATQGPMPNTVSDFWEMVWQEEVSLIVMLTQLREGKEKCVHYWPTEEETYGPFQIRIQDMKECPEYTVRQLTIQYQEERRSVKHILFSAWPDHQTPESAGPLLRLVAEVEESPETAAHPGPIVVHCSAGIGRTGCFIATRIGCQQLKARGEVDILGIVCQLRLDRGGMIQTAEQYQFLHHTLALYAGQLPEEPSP", "format": "functional"}, "[6]": {"target": "T2, Tyrosine-protein phosphatase non-receptor type 22", "format": "functional", "remark": "listed apart in the source"}, "[7]": {"target": "T4, G-protein coupled receptor 55 (Homo sapiens, UniProt Q9Y2T6)", "T4 sequence (Q9Y2T6 whole entry)": "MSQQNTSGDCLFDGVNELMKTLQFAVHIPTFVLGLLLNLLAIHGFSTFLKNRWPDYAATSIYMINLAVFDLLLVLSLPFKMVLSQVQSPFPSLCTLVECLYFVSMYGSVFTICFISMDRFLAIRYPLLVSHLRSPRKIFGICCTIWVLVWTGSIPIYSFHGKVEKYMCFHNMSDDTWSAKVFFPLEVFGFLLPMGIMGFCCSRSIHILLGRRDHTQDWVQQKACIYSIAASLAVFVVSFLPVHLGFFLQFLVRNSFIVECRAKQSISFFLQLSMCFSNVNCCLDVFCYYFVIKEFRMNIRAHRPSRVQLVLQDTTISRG", "assay": "GPR55 antagonist potency of analogs, SAR follow-up, imaging, U2OS, beta-arrestin-GFP, LPI agonist, set 2 (AID 2820)", "format": "functional"}, "[8]": {"target": "T5, G-protein coupled receptor 35 (Homo sapiens, UniProt Q9HC97)", "T5 sequence (Q9HC97 whole entry)": "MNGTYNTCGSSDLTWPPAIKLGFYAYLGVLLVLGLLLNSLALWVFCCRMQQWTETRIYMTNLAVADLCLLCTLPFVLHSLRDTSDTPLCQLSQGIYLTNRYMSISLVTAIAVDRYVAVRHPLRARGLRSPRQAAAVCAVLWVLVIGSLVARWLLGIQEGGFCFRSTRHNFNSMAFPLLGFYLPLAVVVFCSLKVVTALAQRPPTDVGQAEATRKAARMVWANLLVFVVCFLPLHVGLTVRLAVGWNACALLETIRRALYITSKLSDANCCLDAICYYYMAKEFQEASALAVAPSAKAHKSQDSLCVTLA", "assay": "SAR analysis of Antagonists of the GPR35 Receptor using an Image-Based Assay - Set 3. [Related pubchem assays (depositor defined):AID2013, AID2026]", "format": "functional"}, "Cannabinoid receptor 1 [9]": {"target": "T6, Cannabinoid receptor 1 (Homo sapiens, UniProt P21554)", "T6 sequence (P21554 whole entry)": "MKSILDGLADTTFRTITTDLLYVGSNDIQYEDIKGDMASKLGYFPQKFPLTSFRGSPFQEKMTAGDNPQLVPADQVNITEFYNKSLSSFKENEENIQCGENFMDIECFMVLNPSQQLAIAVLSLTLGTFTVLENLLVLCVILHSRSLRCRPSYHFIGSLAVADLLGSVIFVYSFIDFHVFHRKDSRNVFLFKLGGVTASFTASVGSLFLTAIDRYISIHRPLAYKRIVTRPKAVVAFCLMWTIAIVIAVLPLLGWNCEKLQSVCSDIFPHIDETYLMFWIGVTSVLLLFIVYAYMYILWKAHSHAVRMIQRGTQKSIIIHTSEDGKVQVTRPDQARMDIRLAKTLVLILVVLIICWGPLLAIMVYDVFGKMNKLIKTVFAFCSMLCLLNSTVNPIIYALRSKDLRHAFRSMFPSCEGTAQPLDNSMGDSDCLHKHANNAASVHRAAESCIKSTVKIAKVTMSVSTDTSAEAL", "assay": "SAR analysis of agonists of the Cannabinoid Receptor 1 using an Image-Based Assay - Set 2. [Related pubchem assays (depositor defined):AID2013, AID2026]", "format": "functional"}, "Cannabinoid receptor 2 [10]": {"target": "T7, Cannabinoid receptor 2 (Homo sapiens, UniProt P34972)", "T7 sequence (P34972 whole entry)": "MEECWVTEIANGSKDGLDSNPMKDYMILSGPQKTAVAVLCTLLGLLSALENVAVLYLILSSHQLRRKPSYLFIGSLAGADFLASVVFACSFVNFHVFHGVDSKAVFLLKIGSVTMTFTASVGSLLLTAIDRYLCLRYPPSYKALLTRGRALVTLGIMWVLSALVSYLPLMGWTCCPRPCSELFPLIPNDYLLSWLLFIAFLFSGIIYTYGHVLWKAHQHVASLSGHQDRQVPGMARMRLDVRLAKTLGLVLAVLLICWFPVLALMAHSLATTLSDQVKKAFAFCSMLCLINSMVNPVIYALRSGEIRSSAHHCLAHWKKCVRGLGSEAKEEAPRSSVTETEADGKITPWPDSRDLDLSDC", "assay": "SAR analysis of agonists of the Cannabinoid Receptor 2 using an Image-Based Assay. [Related pubchem assays (depositor defined):AID2013, AID2026]", "format": "functional"}, "Cannabinoid receptor 2 [11]": {"target": "T7, Cannabinoid receptor 2", "assay": "SAR analysis of antagonists of the Cannabinoid Receptor 2 using an Image-Based Assay. [Related pubchem assays (depositor defined):AID2013, AID2026]", "format": "functional"}, "[12]": {"target": "T8, Calpain-2 catalytic subunit (Sus scrofa, UniProt P43367)", "T8 sequence (P43367 whole entry)": "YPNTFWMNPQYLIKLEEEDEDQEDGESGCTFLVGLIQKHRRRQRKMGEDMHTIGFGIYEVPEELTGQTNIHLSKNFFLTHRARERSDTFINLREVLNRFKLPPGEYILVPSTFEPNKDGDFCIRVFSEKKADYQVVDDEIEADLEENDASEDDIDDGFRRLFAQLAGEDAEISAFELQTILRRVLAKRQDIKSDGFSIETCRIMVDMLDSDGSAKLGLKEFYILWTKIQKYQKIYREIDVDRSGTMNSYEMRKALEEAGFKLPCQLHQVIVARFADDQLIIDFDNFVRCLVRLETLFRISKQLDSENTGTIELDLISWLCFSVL", "assay": "pig calpain II inhibitor potency, dose response, biochemical, fluorogenic peptide substrate (AID 1420)", "format": "functional"}, "[13]": {"target": "T4, G-protein coupled receptor 55", "assay": "GPR55 antagonists blocking LPI-driven arrestin recruitment, primary screen, imaging, U2OS, beta-arrestin-GFP, LPI agonist (AID 2013)", "format": "functional"}, "[14]": {"target": "T9, Probable nicotinate-nucleotide adenylyltransferase (Staphylococcus aureus (strain N315), UniProt P65502)", "T9 sequence (P65502 whole entry)": "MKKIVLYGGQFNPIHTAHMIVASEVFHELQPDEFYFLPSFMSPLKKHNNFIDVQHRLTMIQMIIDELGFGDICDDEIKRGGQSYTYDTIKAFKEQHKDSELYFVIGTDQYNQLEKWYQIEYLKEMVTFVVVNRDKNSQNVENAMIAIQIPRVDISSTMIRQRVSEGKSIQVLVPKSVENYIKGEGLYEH", "format": "functional, Staphylococcus aureus subsp. aureus N315", "settings": "read-out: IC50_Mean"}, "[15]": {"target": "T9, Probable nicotinate-nucleotide adenylyltransferase", "format": "functional, Staphylococcus aureus subsp. aureus N315"}, "Cannabinoid receptor 1 [16]": {"target": "T6, Cannabinoid receptor 1", "assay": "SAR analysis of antagonists of the Cannabinoid Receptor 1 using an Image-Based Assay - Set 2. [Related pubchem assays (depositor defined):AID2013, AID2026]", "format": "functional"}, "[17]": {"target": "T5, G-protein coupled receptor 35", "assay": "SAR analysis of Agonists of the GPR35 Receptor using an Image-Based Assay - Set 2. [Related pubchem assays (depositor defined):AID2013, AID2026]", "format": "functional"}, "[18]": {"assay": "Luminescence Cell-Based Dose Response HTS to Identify Inhibitors of Luciferase Translation or Activity in H4-C Neuroglioblastoma Cells. [Related pubchem assays: 1813 (Primary HTS), 1827 (Project Summary)]", "format": "functional"}, "[19]": {"assay": "Luminescence Cell-Based Dose Response HTS to Identify Activators of Luciferase Translation or Activity in H4-C Neuroglioblastoma Cells. [Related pubchem assays: 1829 (Project Summary), 1814 (Primary HTS)]", "format": "functional"}, "[20]": {"assay": "Luminescence Cell-Based Dose Confirmation HTS to Identify Inhibitors of 5'UTR Stem-Loop Driven Alpha-Synuclein mRNA Translation in H4 Neuroglioblastoma Cells. [Related pubchem assays: 1827 (Project Summary), 1813 (Primary HTS)]", "format": "functional"}, "[21]": {"assay": "Luminescence Cell-Based Dose HTS Response to Identify Inhibitors of 5'UTR Stem-Loop Driven Prion Protein mRNA Translation in H4-C Neuroglioblastoma Cells. [Related pubchem assays (depositor defined):AID1814, AID1827]", "format": "functional"}, "[22]": {"assay": "Luminescence Cell-Based Dose Response HTS to Identify Inhibitors of 5'UTR Stem-Loop Driven Prion Protein mRNA Translation in H4 Neuroglioblastoma Cells. [Related pubchem assays: 1827 (Project Summary), 1813 (Primary HTS)]", "format": "functional"}, "cells": {"assay": "cells", "format": "functional, cell-based"}, "[23]": {"assay": "cytotoxicity in HEK-293T cells, dose response, cytotoxicity control for TCR NF-kB inhibitor project, luminescence, T-cell screen hits (AID 489026)", "format": "functional, cell-based"}, "[24]": {"assay": "Luminescence Cell-Based Dose Response HTS to Identify Activators of 5'UTR Stem-Loop Driven Prion Protein mRNA Translation in H4-C Neuroglioblastoma Cells. [Related pubchem assays: 1829 (Project Summary), 1814 (Primary HTS)]", "format": "functional"}, "[25]": {"assay": "Luminescence Cell-Based Dose Retest to Confirm Activators of 5'UTR Stem-Loop Driven Alpha-Synuclein mRNA Translation in H4 Neuroglioblastoma Cells. [Related pubchem assays (depositor defined):AID1813, AID1829]", "format": "functional"}, "[26]": {"assay": "luciferase reporter signal reduction – luminescence, H4-C neuroglioblastoma cells, dose response (AID 2458)", "format": "functional, cell-based"}, "[27]": {"assay": "inhibitors of SNCA 5'UTR-driven translation, confirmation, luminescence, H4 neuroglioblastoma cells, dose confirmation (AID 2454)", "format": "functional, cell-based"}, "[28]": {"assay": "inhibitors of firefly luciferase expression or activity, dose response, H4 neuroglioma cells, luminescence (AID 1990)", "format": "functional, cell-based"}, "[29]": {"assay": "inhibitors of SNCA 5'UTR-driven reporter translation, confirmation, H4 neuroglioma cells, luminescence (AID 1988)", "format": "functional, cell-based"}}, "note": "The source made the active and inactive calls."}
{"compound": "CC(=O)NC(N=C(S)Nc1ccc(N=Nc2ccccc2)cc1)C(Cl)(Cl)Cl", "note": "(stereo unspecified);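 as to IC50 Mean: confirmatory dose-response retesting of NadD inhibitor hits first found in an ultra-high-throughput screen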", "values": [{"measurement": "IC50", "setting": "[1]", "result": "6.68 µM (active)"}, {"measurement": "IC50", "setting": "[2]", "result": "42.3 µM (inactive)"}, {"measurement": "IC50", "setting": "[3]", "result": "> 5.53 µM (active)"}, {"measurement": "IC50", "setting": "CHO-K1", "result": "> 66.2 µM (inactive)"}]}
{"compound": "CC1=NN(C(=O)c2ccc(Cn3ccc([N+](=O)[O-])n3)cc2)C(O)(C(F)(F)F)C1", "note": "(stereo unspecified)", "values": [{"measurement": "IC50", "setting": "[4]", "result": "> 79.4 µM (inactive)"}, {"measurement": "IC50", "setting": "[5]", "result": "> 79.4 µM (inactive)"}, {"measurement": "IC50", "setting": "[6]", "result": "> 79.4 µM (inactive)"}]}
{"compound": "Cc1cc(C)c2nc(-c3cccnc3)cc(C(=O)Nc3ccc(S(=O)(=O)Nc4onc(C)c4C)cc3)c2c1", "values": [{"measurement": "IC50", "setting": "[7]", "result": "0.457 µM (active)"}, {"measurement": "IC50", "setting": "[8]", "result": "> 32 µM (inactive)"}, {"measurement": "EC50", "setting": "Cannabinoid receptor 1 [9]", "result": "> 32 µM (inactive)"}, {"measurement": "EC50", "setting": "Cannabinoid receptor 2 [10]", "result": "> 32 µM (inactive)"}, {"measurement": "IC50", "setting": "Cannabinoid receptor 2 [11]", "result": "> 32 µM (inactive)"}, {"measurement": "IC50", "setting": "[12]", "result": "> 50 µM (not active)"}, {"measurement": "IC50", "setting": "[13]", "result": "1.55 µM (active)"}, {"measurement": "IC50", "setting": "[14]", "result": "12.5 µM (active)"}, {"measurement": "IC50", "setting": "[15]", "result": "3.76 µM (active)"}, {"measurement": "IC50", "setting": "Cannabinoid receptor 1 [16]", "result": "> 32 µM (inactive)"}, {"measurement": "EC50", "setting": "[17]", "result": "> 32 µM (inactive)"}]}
{"compound": "CCOC(=O)COc1cccc2c(=O)n(CC(=O)NCc3ccc(F)cc3)ccc12", "values": [{"measurement": "EC50", "setting": "[18]", "result": "1.36 µM (active)"}, {"measurement": "EC50", "setting": "[19]", "result": "1.36 µM (inconclusive)"}, {"measurement": "EC50", "setting": "[20]", "result": "26.6 µM (active)"}, {"measurement": "EC50", "setting": "[21]", "result": "22.4 µM (active)"}, {"measurement": "EC50", "setting": "[22]", "result": "> 120 µM (not active)"}, {"measurement": "EC50", "setting": "cells", "result": "2.36 µM (active)"}, {"measurement": "IC50", "setting": "[23]", "result": "> 80 µM (inactive)"}, {"measurement": "EC50", "setting": "[24]", "result": "22.4 µM (inconclusive)"}, {"measurement": "EC50", "setting": "[25]", "result": "26.6 µM (inconclusive)"}, {"measurement": "EC50", "setting": "[26]", "result": "> 12 µM (inconclusive)"}, {"measurement": "EC50", "setting": "[27]", "result": "1.51 µM (active)"}, {"measurement": "EC50", "setting": "[28]", "result": "12.6 µM (active)"}, {"measurement": "EC50", "setting": "[29]", "result": "< 0.1 µM (active)"}]}
